Measured values: the NIST ThermoML archive (doi:10.1016/j.fluid.2013.06.021)
± gives the expanded uncertainty stated by the source.

Test: xn = mol fraction of the nth substance listed
Settings: 101 kPa, Liquid; for speed of sound: Sing-around technique in a fixed-path interferometer; for mass density: Vibrating tube method; for viscosity: Capillary tube (Ostwald / Ubbelohde) method

CCCCOCCO [2-butoxyethan-1-ol] + CC(C)O
Settings	mass density, 293.15 K [kg/m3]	mass density, 298.15 K [kg/m3]	speed of sound, 293.15 K [m/s]	speed of sound, 298.15 K [m/s]	speed of sound, 303.15 K [m/s]	viscosity, 298.15 K [mPa·s]	viscosity, 303.15 K [mPa·s]
x1 = 0.0539	796.164 ± 0.12	791.98 ± 0.12	1178.8 ± 0.65	1160.9 ± 0.64	1143.4 ± 0.63	–	–
x1 = 0.054	–	–	–	–	–	2.105 ± 0.12	1.803 ± 0.12
x1 = 0.1088	805.962 ± 0.12	801.77 ± 0.12	1190.2 ± 0.65	1172.5 ± 0.65	1155.2 ± 0.64	2.114 ± 0.12	1.819 ± 0.12
x1 = 0.1607	814.567 ± 0.11	810.37 ± 0.12	1200.9 ± 0.66	1183.5 ± 0.65	1166.2 ± 0.64	2.132 ± 0.12	1.847 ± 0.12
x1 = 0.2041	821.305 ± 0.11	817.11 ± 0.11	1210 ± 0.66	1192.6 ± 0.65	1175.3 ± 0.65	2.145 ± 0.12	1.866 ± 0.12
x1 = 0.2567	828.971 ± 0.11	824.79 ± 0.11	1220.4 ± 0.67	1203 ± 0.66	1185.7 ± 0.65	2.166 ± 0.12	1.889 ± 0.12
x1 = 0.3095	836.163 ± 0.11	831.99 ± 0.11	1230.7 ± 0.67	1213.2 ± 0.66	1195.9 ± 0.66	2.184 ± 0.12	1.923 ± 0.12
x1 = 0.4041	847.973 ± 0.11	843.83 ± 0.11	1247.7 ± 0.68	1230.4 ± 0.67	1213 ± 0.67	2.247 ± 0.12	1.988 ± 0.12
x1 = 0.5041	859.135 ± 0.11	855 ± 0.11	1263.9 ± 0.69	1246.6 ± 0.68	–	2.327 ± 0.12	2.079 ± 0.12
x1 = 0.6113	869.832 ± 0.097	865.69 ± 0.099	1279.6 ± 0.69	1262.2 ± 0.68	–	2.427 ± 0.12	2.194 ± 0.12
x1 = 0.7078	878.523 ± 0.09	874.37 ± 0.092	1292.2 ± 0.69	1274.7 ± 0.69	–	–	–
x1 = 0.7079	–	–	–	–	–	2.538 ± 0.12	2.308 ± 0.12
x1 = 0.8095	886.841 ± 0.085	882.67 ± 0.087	1304 ± 0.7	1286.7 ± 0.69	–	2.648 ± 0.12	2.427 ± 0.12
x1 = 0.857	890.465 ± 0.083	886.29 ± 0.085	1309.2 ± 0.7	1291.8 ± 0.69	–	2.714 ± 0.12	2.487 ± 0.12
x1 = 0.9069	894.11 ± 0.082	889.93 ± 0.083	1314.2 ± 0.7	1296.8 ± 0.7	–	2.778 ± 0.12	2.549 ± 0.12
x1 = 0.9527	897.317 ± 0.081	893.12 ± 0.082	1318.8 ± 0.7	1301.5 ± 0.7	–	2.838 ± 0.12	2.604 ± 0.12
